Test results published in article PMC11845477, “Exploring the principles behind antibiotics with limited resistance” (Nature Communications, 2025).

Tests used:
E. coli BW25113-ΔacrB = assay: AcrAB-TolC efflux deficiency screen, relative MIC; type: cell-based, Escherichia coli; conditions: ΔacrB vs wild-type
Experimental: Fig. 6 The impact of AcrAB-TolC activity on antibiotic susceptibility. E. coli strains with AcrAB-TolC depletion (BW25113-ΔacrB) and overexpression (BW25113: pUCacrAB) were treated with various antibiotics, and the level of resistance was determined as minimum inhibitory concentration (MIC) relative to a wild-type strain, presented on a logarithmic scale (log2). Each bar represents the mean resistance level (susceptibility, i.e., level of resistance < 0; and resistance, i.e., level of resistance > 0) to antibiotics induced by acrAB overexpression (blue bars; E. coli with a multicopy plasmid of the acrAB genes (pUCacrAB)) and acrB deletion (red bars; mutant E. coli with acrB gene deletion (ΔacrB)) compared to the wild-type. Data are presented as mean values of 3 biological replicates ± SD. […] Detailed information on antibiotic and bacterial strain abbreviations is provided in Supplementary Data 1. Source data are provided as a Source Data file. For information on mode of action groups, refer to Table 1.
For the efflux deficiency screen, the ΔacrB mutant of E. coli K12 BW25113[86] and its equivalent wild-type control strain with intact gene were utilized. In contrast, BW25113 carrying a multicopy acrAB plasmid (pUCacrAB)[87] and its control strain harboring an empty pUC118 plasmid were used to overexpress the acrAB efflux system. According to established protocols via P1 transduction, the suitable acrB deletion mutant (ΔacrB BW25113) was created, while the pUCacrAB plasmid was kindly provided by Kunihiko Nishino and Akihito Yamaguchi (Osaka University, Osaka, Japan). In a prior study, both strains were employed. Since the copy number of the plasmid carrying the efflux pump is controlled by native promoters, external induction is unnecessary.
Antibiotic susceptibilities of these strains were evaluated using a modified version of the standard broth dilution method. In 96-well microtiter plates containing fresh MHB medium, or supplemented MS medium in case of SCH79797, ten-step serial dilutions of an antibiotic from a stock solution were made (2 wells per antibiotic concentration per strain). The two wells contained only supplemented media without any antibiotics […]. Strains were incubated overnight at 37 °C with continuous agitation. Additionally, plasmid containing strains were grown in the presence of 100 µg/mL ampicillin. The culture was diluted to yield a cell suspension with 5 ×10^5 cells/mL and then inoculated into the wells of the microtiter plate. To determine the medium’s background OD value, the first column of the 96-well plate contained solely MHB without inoculum. Prior to the measurement, the plates were incubated at 37 °C with continuous shaking at 900 rpm with 3 mm throw. OD600 values were determined in a microplate reader after 18 hours of incubation (Biotek Synergy 2). The minimum inhibitory concentration (MIC) was determined as the lowest concentration of antibiotic at which the OD600 values were less than 0.05 after subtracting the background value. The log2 of the relative MIC was computed using the following equation:2 log2relativeMICpUCacrAB=MICpUCacrAB/MICpUC118 3 log2relativeMICΔacrB=MICΔacrB/MICwt

[1] = test system: K. pneumoniae ATCC 10031 (SEN) and K. pneumoniae ATCC 700603 (MDR); assay: Adaptive laboratory evolution (ALE), relative MIC of evolved lines; type: cell-based, Klebsiella pneumoniae
Text: Using the same set of bacterial strains, we initiated adaptive laboratory evolution with the aim to maximize the level of antibiotic resistance in the populations achieved during a longer, but fixed time period.
An established protocol for adaptive laboratory evolution[46],[73] was followed to propagate populations with the highest resistance levels. Starting with an antibiotic concentration that caused approximately 50% growth inhibition, ten parallel populations for each antibiotic-ancestor strain combination were grown for 72 hours at 37 °C with continuous shaking (300 RPM). MHB broth medium was used unless stated otherwise. After each incubation, 20 µl of each culture was transferred to four new wells containing fresh medium with increasing antibiotic concentrations (0.5×, 1×, 1.5×, and 2.5× the previous concentration) in a chessboard layout to monitor potential cross-contamination. Growth was monitored by measuring OD600 using a Biotek Synergy 2 microplate reader, and only populations grown in the highest drug concentration with an OD600 > 0.2 were transferred further.
A robotic liquid handling system was used to automatically prepare a 11 to 16-step serial dilution in 384-well microtiter plates (Greiner). A final concentration of 5 × 10^5 bacterial cells per mL were inoculated into each well containing 60 µL MHB medium. Bacterial cultures were incubated at 37 °C with continuous shaking (Infors shaker, 900 rpm with 3 mm throw) for 18 hours (2 replicates from each). Cell growth was monitored by measuring the optical density (OD600 values, using Biotek Synergy microplate reader). MIC was defined as the antibiotic concentration of complete growth inhibition (i.e., OD600 < 0.05). Relative MIC was calculated as follows:1 relativeMIC=MICevolved/MICancestor […]
Supplementary Figure 4. Resistance levels following adaptive laboratory evolution across bacterial strains. The level of resistance was measured as the fold change in relative MIC between evolved and ancestral strains after ~60 days of adaptive laboratory evolution. Data are grouped by bacterial strain (A. baumannii (AB), E. coli (EC), K. pneumoniae (KP), and P. aeruginosa (PA)) and categorized as either multidrug-resistant (MDR) or sensitive (SEN). Each data point represents a laboratory evolved line, and boxplots show the median, first and third quartiles, with whiskers indicating the 5th and 95th percentiles.
Statistical analysis was performed using two-sided Dunn’s post-hoc test with Benjamini-Hochberg correction for multiple comparisons (****/ ***/ **/ * indicates p < 0.0001/ 0.001/ 0.01/ 0.05). For detailed information on antibiotic and bacterial species, see Supplementary Table 1. For mode of action groups, refer to Table 1. Source data are provided as a Source Data file.

[2] = KP-SEN (ATCC 10031), evolved line 1, MIC of evolved line / MIC of ancestor
[3] = KP-SEN (ATCC 10031), evolved line 2, MIC of evolved line / MIC of ancestor
[4] = KP-SEN (ATCC 10031), evolved line 3, MIC of evolved line / MIC of ancestor
[5] = KP-SEN (ATCC 10031), evolved line 4, MIC of evolved line / MIC of ancestor
[6] = KP-SEN (ATCC 10031), evolved line 5, MIC of evolved line / MIC of ancestor
[7] = KP-SEN (ATCC 10031), evolved line 6, MIC of evolved line / MIC of ancestor
[8] = KP-SEN (ATCC 10031), evolved line 7, MIC of evolved line / MIC of ancestor
[9] = KP-SEN (ATCC 10031), evolved line 8, MIC of evolved line / MIC of ancestor
[10] = KP-SEN (ATCC 10031), evolved line 9, MIC of evolved line / MIC of ancestor
[11] = KP-SEN (Klebsiella pneumoniae ATCC 10031), evolved line 8 adapted to the named antibiotic
[12] = KP-SEN (Klebsiella pneumoniae ATCC 10031), evolved line 9 adapted to the named antibiotic
[13] = Klebsiella pneumoniae ATCC 10031 (KP-SEN), evolved line 1
[14] = Klebsiella pneumoniae ATCC 10031 (KP-SEN), evolved line 2
[15] = Klebsiella pneumoniae ATCC 10031 (KP-SEN), evolved line 3
[16] = Klebsiella pneumoniae ATCC 10031 (KP-SEN), evolved line 4
[17] = Klebsiella pneumoniae ATCC 10031 (KP-SEN), evolved line 5
[18] = Klebsiella pneumoniae ATCC 10031 (KP-SEN), evolved line 6
[19] = Klebsiella pneumoniae ATCC 10031 (KP-SEN), evolved line 7
[20] = Klebsiella pneumoniae ATCC 10031 (KP-SEN), evolved line 8
[21] = Klebsiella pneumoniae ATCC 10031 (KP-SEN), evolved line 9

## Nc1nc(-n2cc(C(=O)O)c(=O)c3cc(F)c(N4CC(O)C4)c(Cl)c32)c(F)cc1F [Delafloxacin]
E. coli BW25113-ΔacrB; replicate 1
  Relative MIC (log2): -4
E. coli BW25113-ΔacrB; replicate 2
  Relative MIC (log2): -4
E. coli BW25113-ΔacrB; replicate 3
  Relative MIC (log2): -4
[1]; KP-MDR (ATCC 700603), evolved line 2, MIC of evolved line / MIC of ancestor
  Relative MIC: 64
[1]; KP-MDR (ATCC 700603), evolved line 3, MIC of evolved line / MIC of ancestor
  Relative MIC: 16
[1]; KP-MDR (ATCC 700603), evolved line 4, MIC of evolved line / MIC of ancestor
  Relative MIC: 32
[1]; KP-MDR (ATCC 700603), evolved line 5, MIC of evolved line / MIC of ancestor
  Relative MIC: 32
[1]; KP-MDR (ATCC 700603), evolved line 6, MIC of evolved line / MIC of ancestor
  Relative MIC: 128
[1]; KP-MDR (ATCC 700603), evolved line 7, MIC of evolved line / MIC of ancestor
  Relative MIC: 128
[1]; KP-MDR (ATCC 700603), evolved line 8, MIC of evolved line / MIC of ancestor
  Relative MIC: 64
[1]; KP-MDR (ATCC 700603), evolved line 9, MIC of evolved line / MIC of ancestor
  Relative MIC: 64
[1]; KP-MDR (ATCC 700603), evolved line 10, MIC of evolved line / MIC of ancestor
  Relative MIC: 64
[1]; KP-MDR (Klebsiella pneumoniae ATCC 700603), evolved line 2 adapted to the named antibiotic
  Relative MIC (log10): 1.806
[1]; KP-MDR (Klebsiella pneumoniae ATCC 700603), evolved line 6 adapted to the named antibiotic
  Relative MIC (log10): 2.107
[1]; KP-MDR (Klebsiella pneumoniae ATCC 700603), evolved line 7 adapted to the named antibiotic
  Relative MIC (log10): 2.107
[1]; KP-MDR (Klebsiella pneumoniae ATCC 700603), evolved line 8 adapted to the named antibiotic
  Relative MIC (log10): 1.806
[1]; KP-MDR (Klebsiella pneumoniae ATCC 700603), evolved line 10 adapted to the named antibiotic
  Relative MIC (log10): 1.806
[1]; [2]
  Relative MIC: 16384
[1]; [3]
  Relative MIC: 8192
[1]; [4]
  Relative MIC: 16384
[1]; [5]
  Relative MIC: 8192
[1]; [6]
  Relative MIC: 16384
[1]; [7]
  Relative MIC: 16384
[1]; [8]
  Relative MIC: 8192
[1]; [9]
  Relative MIC: 65536
[1]; [10]
  Relative MIC: 65536
[1]; KP-SEN (Klebsiella pneumoniae ATCC 10031), evolved line 1 adapted to the named antibiotic
  Relative MIC (log10): 4.214
[1]; KP-SEN (Klebsiella pneumoniae ATCC 10031), evolved line 3 adapted to the named antibiotic
  Relative MIC (log10): 4.214
[1]; KP-SEN (Klebsiella pneumoniae ATCC 10031), evolved line 7 adapted to the named antibiotic
  Relative MIC (log10): 3.913
[1]; [11]
  Relative MIC (log10): 4.816
[1]; [12]
  Relative MIC (log10): 4.816
[1]; [13]
  Relative MIC: 16384
[1]; [14]
  Relative MIC: 8192
[1]; [15]
  Relative MIC: 16384
[1]; [16]
  Relative MIC: 8192
[1]; [17]
  Relative MIC: 16384
[1]; [18]
  Relative MIC: 16384
[1]; [19]
  Relative MIC: 8192
[1]; [20]
  Relative MIC: 65536
[1]; [21]
  Relative MIC: 65536
[1]; Klebsiella pneumoniae ATCC 700603 (KP-MDR), evolved line 2
  Relative MIC: 64
[1]; Klebsiella pneumoniae ATCC 700603 (KP-MDR), evolved line 3
  Relative MIC: 16
[1]; Klebsiella pneumoniae ATCC 700603 (KP-MDR), evolved line 4
  Relative MIC: 32
[1]; Klebsiella pneumoniae ATCC 700603 (KP-MDR), evolved line 5
  Relative MIC: 32
[1]; Klebsiella pneumoniae ATCC 700603 (KP-MDR), evolved line 6
  Relative MIC: 128
[1]; Klebsiella pneumoniae ATCC 700603 (KP-MDR), evolved line 7
  Relative MIC: 128
[1]; Klebsiella pneumoniae ATCC 700603 (KP-MDR), evolved line 8
  Relative MIC: 64
[1]; Klebsiella pneumoniae ATCC 700603 (KP-MDR), evolved line 9
  Relative MIC: 64
[1]; Klebsiella pneumoniae ATCC 700603 (KP-MDR), evolved line 10
  Relative MIC: 64

## C[C@H]1c2cccc(O)c2C(=O)C2=C(O)[C@]3(O)C(=O)C(C(N)=O)=C(O)[C@@H](N(C)C)[C@@H]3[C@@H](O)[C@@H]21 [Doxycycline]
E. coli BW25113-ΔacrB; replicate 1
  Relative MIC (log2): -2.34
E. coli BW25113-ΔacrB; replicate 2
  Relative MIC (log2): -2.34
E. coli BW25113-ΔacrB; replicate 3
  Relative MIC (log2): -2.34
[1]; [2]
  Relative MIC: 32
[1]; [3]
  Relative MIC: 64
[1]; [4]
  Relative MIC: 32
[1]; [5]
  Relative MIC: 256
[1]; [6]
  Relative MIC: 256
[1]; [7]
  Relative MIC: 256
[1]; [8]
  Relative MIC: 256
[1]; [9]
  Relative MIC: 256
[1]; [10]
  Relative MIC: 256
[1]; KP-SEN (ATCC 10031), evolved line 10, MIC of evolved line / MIC of ancestor
  Relative MIC: 128
[1]; KP-SEN (Klebsiella pneumoniae ATCC 10031), evolved line 4 adapted to the named antibiotic
  Relative MIC (log10): 2.408
[1]; KP-SEN (Klebsiella pneumoniae ATCC 10031), evolved line 5 adapted to the named antibiotic
  Relative MIC (log10): 2.408
[1]; KP-SEN (Klebsiella pneumoniae ATCC 10031), evolved line 6 adapted to the named antibiotic
  Relative MIC (log10): 2.408
[1]; [11]
  Relative MIC (log10): 2.408
[1]; [12]
  Relative MIC (log10): 2.408
[1]; [13]
  Relative MIC: 32
[1]; [14]
  Relative MIC: 64
[1]; [15]
  Relative MIC: 32
[1]; [16]
  Relative MIC: 256
[1]; [17]
  Relative MIC: 256
[1]; [18]
  Relative MIC: 256
[1]; [19]
  Relative MIC: 256
[1]; [20]
  Relative MIC: 256
[1]; [21]
  Relative MIC: 256
[1]; Klebsiella pneumoniae ATCC 10031 (KP-SEN), evolved line 10
  Relative MIC: 128
